According to patent publication US20260015574A1, “METHODS FOR SHORTENING LAG PHASE DURATION IN MICROORGANISMS” (YEDA RESEARCH AND DEVELOPMENT CO. LTD., priority 2022, published 2026):

Experiments:
P. inhibens = experiment: Lag phase metabolomics with 13C-labeled DMSP; assay type: cell-based, Phaeobacter inhibens; conditions: 50 μM 13C-labeled DMSP, two hours, LC/MS
Procedure: DMSP was synthesized in which both S-methyl groups are ^13C-labeled, using the protocol of Wirth and Whitman (2018). Freshly initiated P. inhibens cultures (OD 0.01, ASW+CNS medium) were treated with 50 μM 13C-labeled DMSP and compared to reference cultures with non-labeled DMSP. Bacterial cells were harvested and extracted two hours after adding DMSP. The incorporation of the 13C label was analyzed by LC/MS (FIG. 12).
To further elucidate the fate of methyl groups, the inventors analyzed the transcriptome of DMSP-treated P. inhibens bacteria during the lag phase, and compared it to untreated control cultures. […] To further establish that DMSP methyl groups are assimilated via the methionine cycle, the inventors measured the methionine synthesis activity in protein crude extracts of stationary bacterial cells, using a biochemical assay followed by LC/MS analysis. […] Taken together, the inventors established that DMSP methyl groups are assimilated during the lag phase via the methionine cycle.

[1] = tested on: Phaeobacter inhibens DSM 17395; experiment: Growth / lag phase shortening assay of P. inhibens pure cultures with glucose; assay type: cell-based; conditions: for lag phase shortening effect (Δlag time) of panel compounds: 1 mM glucose and 2 μM of the respective compound
Procedure: ASW was adjusted to pH 8 using HCl. If not otherwise stated, the medium was further supplemented with a source of carbon (glucose, 1 mM), nitrogen (NH4Cl, 5 mM), and sulfur (Na2SO4, 33 mM), referred to as ASW+CNS. […] A 96-well Tecan Infinite M Plex plate reader was used for high-resolution monitoring of bacterial growth dynamics at 30° C. An ImageStreamX Flow Imager system (Amnis) was used to characterize bacterial populations during the lag phase (FIG. 6). The growth of bacteria in co-culture with algae was monitored by counting colony forming units (CFU) on ½ YTSS agar plates. The growth of algae was monitored with a CellStream flow cytometer (Merck, Darmstadt, Germany).
To test whether methylated compounds affect the growth of bacteria, the inventors cultivated bacterial pure cultures with glucose as main growth substrate and supplemented the medium with the well-studied methylated compound dimethylsulfoniopropionate (DMSP). DMSP that is naturally produced by microalgae and found in detectable levels in seawater, is known to be metabolized by various bacteria. […] To quantify the lag phase shortening effect, the inventors calculated the Δlag time, which is the time difference between the commence of exponential growth in control cultures compared to treated cultures (FIG. 5B).
To reflect the natural low bacterial abundance in the oligotrophic ocean with low microalgal productivity, the current bacterial growth experiments were routinely initiated with an optical density (OD) of 0.00001. Such low initial ODs challenge the detection of cell divisions that occur prior to reaching an OD of at least 0.001, which is the theoretical limit of detection. To determine the actual length of the lag phase, the inventors analyzed bacterial cultures using imagining flow cytometry.

E. coli = experiment: Lag phase shortening in E. coli; assay type: cell-based, Escherichia coli
Description: (§1) To explore whether lag phase shortening is a general mechanism among bacteria, the inventors tested the effect of methylated compounds in bacteria with different lifestyles. […] Since methylated compounds are a hallmark of photosynthesizing organisms, the inventors next tested a variety of bacteria that are plant-associated. […] Finally, to establish the prevalence of lag phase shortening among bacteria, the inventors tested the model bacterium E. coli. This bacterium is not commonly found associated with photosynthesizing organisms, and thus, is unlikely to respond to algal metabolites. […] The synchrony between specific compounds and different groups of bacteria may reflect the natural context […].

[2] = tested on: opportunistic pathogens, found in both plants and humans; experiment: Lag phase shortening in opportunistic pathogens found in plants and humans; assay type: cell-based
Description: as §1

Various marine bacteria = experiment: Lag phase shortening in various marine bacteria; assay type: cell-based; conditions: minute amounts of compound
Procedure: (§2) The bacterial strain Phaeobacter inhibens DSM 17395 was purchased from the German collection of microorganisms and cell cultures (DSMZ, Braunschweig, Germany) and stored at −80° C. with 20% glycerol. Routine cultivation of P. inhibens was conducted at 30° C. in artificial seawater medium (ASW) based on Goyet and Poisson (1989). The ASW medium contained mineral salts (NaCl, 409.41 mM; Na2SO4, 28.22 mM; KCl, 9.08 mM; KBr, 0.82 mM; NaF, 0.07 mM; Na2CO3, 0.20 mM; NaHCO3, 2 mM; MgCl2, 50.66 mM; SrCl2, 0.09 mM), L1 vitamins (thiamine HCl, 100 μg/L; biotin, 0.5 μg/L; vitamin B12, […]), L1 trace elements (Na2EDTA·2H2O, 4.36 mg/L; FeCl3·6H2O, 3.15 mg/L; MnCl2·4H2O, 178.1 μg/L; ZnSO4·7H2O, 23.0 μg/L; CoCl2·6H2O, 11.9 μg/L; CuSO4·5H2O, 2.5 μg/L; Na2MoO4·2H2O, 19.9 μg/L; H2SeO3, 1.29 μg/L; NiSO4·6H2O, 2.63 μg/L; Na3 VO4, 1.84 μg/L; K2CrO4, 1.94 μg/L), and L1 nutrients (NaNO3, 882 μM; NaH2PO4, 36.22 μM). ASW was adjusted to pH 8 using HCl. […] A 96-well Tecan Infinite M Plex plate reader was used for high-resolution monitoring of bacterial growth dynamics at 30° C. […] The growth of bacteria in co-culture with algae was monitored by counting colony forming units (CFU) on ½ YTSS agar plates. The growth of algae was monitored with a CellStream flow cytometer (Merck, Darmstadt, Germany). […]

[3] = tested on: Bacillus subtilis strain 168; experiment: Lag phase shortening in B. subtilis; assay type: cell-based
Procedure: The bacterial strain Phaeobacter inhibens DSM 17395 was purchased from the German collection of microorganisms and cell cultures (DSMZ, Braunschweig, Germany) and stored at −80° C. with 20% glycerol. Routine cultivation of P. inhibens was conducted at 30° C. in artificial seawater medium (ASW) based on Goyet and Poisson (1989). The ASW medium contained mineral salts (NaCl, 409.41 mM; Na2SO4, 28.22 mM; KCl, 9.08 mM; KBr, 0.82 mM; NaF, 0.07 mM; Na2CO3, 0.20 mM; NaHCO3, 2 mM; MgCl2, 50.66 mM; SrCl2, 0.09 mM), L1 vitamins (thiamine HCl, 100 μg/L; biotin, 0.5 μg/L; vitamin B12, […]), L1 trace elements (Na2EDTA·2H2O, 4.36 mg/L; FeCl3·6H2O, 3.15 mg/L; MnCl2·4H2O, 178.1 μg/L; ZnSO4·7H2O, 23.0 μg/L; CoCl2·6H2O, 11.9 μg/L; CuSO4·5H2O, 2.5 μg/L; Na2MoO4·2H2O, 19.9 μg/L; H2SeO3, 1.29 μg/L; NiSO4·6H2O, 2.63 μg/L; Na3 VO4, 1.84 μg/L; K2CrO4, 1.94 μg/L), and L1 nutrients (NaNO3, 882 μM; NaH2PO4, 36.22 μM). ASW was adjusted to pH 8 using HCl. If not otherwise stated, the medium was further supplemented with a source of carbon (glucose, 1 mM), nitrogen (NH4Cl, 5 mM), and sulfur (Na2SO4, 33 mM), referred to as ASW+CNS. Methylated effector compounds (e.g., donors) were administered at 1 or 2 μM in routine assays, or in higher concentrations as stated. The bacterium Bacillus subtilis strain 168 was cultivated in M9 Medium (Na2HPO4, 6 g/L; KH2PO4, 3 g/L; NaCl, 0.5 g/L; NH4CL, 1 g/L; CaCl2), 100 µM; MgSO4, 1 mM; Thiamine, 5 mg/L; EDTA, 50 mg/L; FcCl3, 4.98 mg/L; ZnCl2, 0.84 mg/L; CuCl2·2H2O, 0.13 mg/L; CoCl2·6H2O, 0.1 mg/L; H3BO3, 0.1 mg/L; MnCl2·4H2O, 0.016 mg/L; pH 7.1) with 20 mM glucose. Other bacterial strains tested for lag phase shortening were isolated from the marine environment (Despotović et al., 2021), and cultivated in ASW+CNS. A 96-well Tecan Infinite M Plex plate reader was used for high-resolution monitoring of bacterial growth dynamics at 30° C. […] The growth of bacteria in co-culture with algae was monitored by counting colony forming units (CFU) on ½ YTSS agar plates. The growth of algae was monitored with a CellStream flow cytometer (Merck, Darmstadt, Germany). […]

[4] = tested on: bacteria that are plant-associated; experiment: Lag phase shortening in plant-associated bacteria; assay type: cell-based
Description: as §1

[5] = tested on: P. inhibens mttB1 KO mutant; experiment: Lag phase shortening in mttB1 knockout mutant; assay type: cell-based, Phaeobacter inhibens
Procedure: (§3) For creation of P. inhibens knockout cells, ˜1,000 bp regions upstream and downstream of the gene of interest were amplified by PCR (Phusion High-Fidelity DNA polymerase, Thermo Scientific), using primers that added homologous regions to gentamycin or kanamycin resistance markers. The fragments were assembled and cloned into the TOPOII vector (Invitrogen) using restriction-free cloning (Peleg Y. & Unger T., 2014), generating a knockout (KO) plasmid. P. inhibens electrocompetent cells (300 μl) were transformed with 10 μg of the constructed KO plasmid by a pulse of 1.8 kV (Bio Rad). Cells were selected on ½YTSS agar plates containing 30 μg/ml gentamycin or 150 μg/ml kanamycin. Successful knockouts in single cell clones were verified by PCR and sanger sequencing.
The inventors further sought to better understand why methyl groups shorten the bacterial lag phase. The inventors list at least three cellular scenarios which could explain the effect that methylated compounds have on the lag phase: (1) methyl groups might be a limiting resource; (2) methyl groups might act as a signal that triggers a cellular cascade, which culminates in lag phase shortening; and (3) methylated compounds could accumulate intracellularly and function as osmoprotectants and antioxidants. […]

[6] = tested on: marine bacterium Vibrio sp.; experiment: Lag phase shortening in Vibrio sp.; assay type: cell-based; conditions: 2 μM compound
Procedure: as §2

P. inhibens Δbmt mutant = experiment: Growth and lag phase shortening in Δbmt mutant; assay type: cell-based, Phaeobacter inhibens; conditions: minimal media, addition of 200 μM methionine
Procedure: as §3

`[13CH3][S+]([13CH3])CCC(=O)[O-]` [13C-labeled DMSP] was tested, and the “metabolic fate of DMSP methyl groups (13C label incorporation)” value (P. inhibens) was “converted into SAM”.

For `C[S+](C)CC(=O)[O-]` [DMSA, dimethylsulfonioacetate], the “lag phase shortening effect (Δlag time) of panel compounds” value (“lag phase shortening effect (Δlag time)” below) [1] was “most pronounced”.

With `C[S+](C)CC[C@H](N)C(=O)O` [SMM, S-methyl-L-methionine] the Δlag time (E. coli; E. coli BL21, 2 μM SMM (FIG. 17C)) was “Δlag time of one hour”, the lag phase shortening (E. coli; modified strains BL21(DE3) and DH5α) was “this effect was observed” and the lag phase shortening (E. coli; wild-type strain K12) was “only showed this effect upon addition of greater SMM concentrations”. The lag phase shortening [2] was “shorten their lag phase”.

With `COc1cc(Cc2cnc(N)nc2N)cc(OC)c1OC` [Trimethoprim, reference compound] the “growth of P. inhibens in the presence of the THF inhibitor” value [1] was “cannot grow unless the culture is supplemented with nucleotides”.

For `C[N+](C)(C)CC(=O)O` [betaine, glycine betaine], the lag phase shortening (E. coli; treatment with algal metabolites) was “did not shorten the lag phase”, the “lag phase shortening effect (Δlag time)” value [1] was “most pronounced” and the lag phase shortening (Various marine bacteria) was “marked lag phase shortening”. The lag phase shortening ([3]; 2 μM compound) was “induction of the lag phase shortening”, the Δlag time ([3]; FIG. 17B) was 7 h and the lag phase shortening [4] was “significant shortening of the lag phase”. The lag phase shortening [5] was “does not shorten the lag phase” and the lag phase shortening [6] was “induction of the lag phase shortening”.

`C[N+](C)(C)CC(O)CC(=O)[O-]` (centres unmarked) [carnitine] was tested, and the “lag phase shortening effect (Δlag time)” value [1] was “most pronounced”.

`C[S+](C)CCC(O)CC(=O)[O-]` (centres unmarked) [gonyol] was tested, and the “lag phase shortening effect (Δlag time)” value [1] was “most pronounced”.

`CSCC[C@H](N)C(=O)O` [methionine] was tested, and the “growth of the Δbmt mutant” value (P. inhibens Δbmt mutant) was “fully recovered” and the “lag phase shortening effect (Δlag time)” value [1] was “prolonged the lag phase”.

With `C[N+]1(C)CCC[C@H]1C(=O)[O-]` [stachydrine] the “lag phase shortening effect (Δlag time)” value [1] was “most pronounced”.
